Experimental data from US20260234159A1, “SMALL MOLECULE TREATMENT OF FATTY LIVER DISEASE AND HCC” (SCANDIEDGE THERAPEUTICS AB, priority 2023, published 2026).

Legend:
Assay type in all cases: cell-based, human
[1] = tested on: PKL; assay: Western blot, PKL; conditions: 10 μM, 2 days
Protocol: (§1) HepG2 cells were seeded into a 6-well plate at 400,000 cells per well. After treatment with 10 μM of JNK-IN-5A and its derivatives for two days, lysates were harvested with CelLytic M (C2978, Sigma-Aldrich). 20 μg lysate was prepared with 2× Laemmli Sample Buffer (1610737, Biorad). SDS PAGE were performed using Mini-PROTEAN® TGX™ Precast Gels (Bio-Rad) and transferred using Trans-Blot® Turbo™ Transfer System (Bio-Rad). Primary antibody, PARP (95425, Cell signalling), Caspase 3 (ab32042, abcam), Bcl-2 (ab182858), STAT1 (HPA000982, Merk), PKL (06653, Sigma), PKM (4053S, Cell signalling), GAPDH (ab8245, abcam), P53 (ab32389, abcam), p21 (ab109199, abcam), p-S349 p62 (ab211324, abcam), p62 (ab109012, abcam), c-Myc (ab32072, abcam), GPX4 (ab125066, abcam), MMP9 (MA5-32705, Invitrogen), β-actin (ab8227, abcam), and α-tubulin (ab7291, abcam) were blotted overnight and Goat Anti-Rabbit HRP (ab205718) and goat anti-mouse IgG-HRP (sc2005, Santa Cruz Biotechnology, Inc.) were blotted for secondary antibody for one hour. ImageQuantTMLAS 500 (29-0050-63, GE) was used to detect protein bands.

[2] = tested on: p21; assay: Nuclear protein western blot, p21; conditions: 10 μM, 2 days
Protocol: as §1

[3] = tested on: c-Myc; assay: Nuclear protein western blot, c-Myc; conditions: 10 μM, 2 days
Protocol: as §1

[4] = tested on: p53; assay: Nuclear protein western blot, p53; conditions: 10 μM, 2 days; compared to sorafenib and regorafenib
Protocol: as §1

[5] = tested on: GPX4; assay: Western blot, GPX4; conditions: compared to the control
Protocol: as §1

[6] = tested on: HepG2 cells; assay: RNA sequencing, GSEA and PROGENy pathway analysis
Protocol: RNA samples for RNA sequencing were extracted with RNeasy Plus Mini Kit (74134, QIAGEN). RIN score of total RNA samples was measured using RNA 6000 Nano kit (5067-1511, Agilent). 2100 Bioanalyzer Instrument (G2939BA, Agilent) was used for RIN score test using electrophoresis. Samples with a […] were submitted to SZA Omics, Istanbul for RNA sequencing analysis.
The quality, quantity, and RNA integrity number (RIN) of the samples were assessed with NanoDrop (Thermo Fisher, USA), and Bioanalyzer (2100, Agilent Technology, USA). For the RNA samples, the ratio of absorbance at 260 and 280 nm (A260/280) of […], A260/230 of 2.0-2.2, and RIN>8.0 are acceptable. All samples passed the quality control.
The Illumina Stranded Total RNA Prep, Ligation with Ribo-Zero Plus kit was used for the construction of NGS libraries from the samples with acceptable quality parameters. In short, RNA samples were sequenced with 2×100 paired-end reads by the NovaSeq 6000 system. Raw sequencing data (.bcl) was demultiplexed and converted to FASTQ files with DRAGEN Software (v3.9.5). The data was delivered in FASTQ format using Illumina 1.8 quality scores.
The quality of FASTQ files was assessed by FastQC (v0.11.9) software to ensure the quality of every sequenced sample. Kallisto (v0.48.0)16 was used to quantify the count and transcripts per million (TPM) values of transcripts based on the Homo sapiens reference cDNA (version GRCh38, Ensembl release 110). The transcript read counts and TPM values were assembled to gene level using the R package tximport (v1.28.0), with only protein-coding transcripts and genes included. The lowly expressed genes with an average count below 5 were filtered out, resulting in a total of 14,592 genes for the downstream analysis.
Differential expression analysis was conducted using the R package DESeq2 (v1.40.2) followed by the Benjamini-Hochberg procedure to correct p-values. […]

[7] = tested on: HepG2 cells; assay: DAPI and PI staining for necrotic cell death; conditions: 10 μM, 2 days
Protocol: HepG2 cells were treated with 10 μM of the JNK-IN-5A derivatives for 2 days and cells were stained with DAPI (Blue) and PI (Red) for 30 min, at live cells. PI positive necrotic cells were counted and plotted.

[8] = tested on: p62 (SQSTM1); assay: Western blot, p62 and p-S349 p62; conditions: 10 μM, 2 days
Protocol: as §1

[9] = tested on: HepG2 cells; assay: LDH cytotoxicity assay, time dependent; conditions: 10 μM, up to 4 days
Protocol: HepG2 cells were maintained and used with RPMI 1640 (R2405, Sigma-Aldrich) supplemented with 10% fetal bovine serum (F7524, Sigma-Aldrich), 1% P/S (P4333, Sigma-Aldrich). 20,000 cells per well of HepG2 cells were seeded into a 96-well plate and triplicated for MTT assay and LDH assay. Cell viability was measured by MTT assay (M6494, ThermoFisher) and cytotoxicity was measured by LDH assay kit (ab65393, abcam) by following manufacturer's instructions. Optical density (O.D) was numerated using a microplate reader (Hidex Sense Meta Plus).

[10] = tested on: PARP; assay: Western blot, cleaved PARP; conditions: 10 μM, 2 days
Protocol: as §1

Compound	PKL expression [1]	p21 nuclear localization [2]	nuclear c-Myc expression [3]	nuclear-localized p53 [4]	GPX4 expression levels [5] [times]	inhibition of cell cycle-related pathways (E2F targets, G2M checkpoint), GSEA [6]	p53 pathways activity (PROGENy) [6]	necrotic cell death (PI staining) [7]	levels of p62 and P-S349 p62 [8]	necrotic cell death (LDH) [9]	increase in cleaved PARP vs untreated control [10] [times]
N#Cc1c(NC(=O)c2cccc3ccccc23)sc2c1CCCC2 [JNK-IN-5A, N-(3-cyano-4,5,6,7-tetrahydrobenzo[b]thiophen-2-yl)-1-naphthamide]	notably decreased	localized in the nucleus	significantly reduced	–	–	–	–	–	–	–	–
COc1ccc(C(=O)Nc2sc3c(c2C#N)CCCCC3)cc1OC [PKL-A135, N-(3-cyano-5,6,7,8-tetrahydro-4H-cyclohepta[b]thiophen-2-yl)-3,4-dimethoxy-benzamide]	–	–	–	significant increase	0.58	most potent inhibitor	significantly activated	significantly induced necrotic cell death	significantly elevated	pronounced necrotic cell death from day 1 to day 4	78.31
N#Cc1c(NC(=O)c2cccc3ccccc23)sc2c1CCN(CC(=O)Nc1cccc(Br)c1)C2 [PKL-B171]	–	–	most substantial decrease	significant increase	0.88	–	significantly activated	significantly induced necrotic cell death	–	pronounced late necrotic cell death from day 3 to 4	87.97
